Assay results taken from ChEMBL document CHEMBL4414672, “Synthesis of certain benzothieno[3,2-d]pyrimidine derivatives as a selective SIRT2 inhibitors” (Eur J Med Chem, 2020).

What was measured:
Format in all cases: functional
SK-MEL-5 = assay: Growth inhibition of human SK-MEL-5 cells at 10^-5 M incubated for 48 hrs by sulforhodamine B assay; settings: SK-MEL-5, 48 h, read-out: GI
SF-295 = assay: Growth inhibition of human SF295 cells at 10^-5 M incubated for 48 hrs by sulforhodamine B assay; settings: SF-295, 48 h, read-out: GI
OVCAR-3 = assay: Growth inhibition of human OVCAR3 cells at 10^-5 M incubated for 48 hrs by sulforhodamine B assay; settings: OVCAR-3, 48 h, read-out: GI
NCI-H522 = assay: Growth inhibition of human NCI-H522 cells at 10^-5 M incubated for 48 hrs by sulforhodamine B assay; settings: NCI-H522, 48 h, read-out: GI
HOP-92 = assay: Growth inhibition of human HOP92 cells at 10^-5 M incubated for 48 hrs by sulforhodamine B assay; settings: HOP-92, 48 h, read-out: GI
PC-3 = assay: Growth inhibition of human PC3 cells at 10^-5 M incubated for 48 hrs by sulforhodamine B assay; settings: PC-3, 48 h, read-out: GI
SK-MEL-2 = assay: Growth inhibition of human SK-MEL-2 cells at 10^-5 M incubated for 48 hrs by sulforhodamine B assay; settings: SK-MEL-2, 48 h, read-out: GI
K562 = assay: Growth inhibition of human K562 cells at 10^-5 M incubated for 48 hrs by sulforhodamine B assay; settings: K562, 48 h, read-out: GI
T47D = assay: Growth inhibition of human T47D cells at 10^-5 M incubated for 48 hrs by sulforhodamine B assay; settings: read-out: GI
SF-539 = assay: Growth inhibition of human SF539 cells at 10^-5 M incubated for 48 hrs by sulforhodamine B assay; settings: SF-539, 48 h, read-out: GI
HCT-116 = assay: Growth inhibition of human HCT116 cells at 10^-5 M incubated for 48 hrs by sulforhodamine B assay; settings: HCT-116, 48 h, read-out: GI
SW-620 = assay: Growth inhibition of human SW620 cells at 10^-5 M incubated for 48 hrs by sulforhodamine B assay; settings: SW-620, 48 h, read-out: GI
CCRF-CEM = assay: Growth inhibition of human CCRF-CEM cells at 10^-5 M incubated for 48 hrs by sulforhodamine B assay; settings: read-out: GI
MDA-MB-435 = assay: Growth inhibition of human MDA-MB-435 cells at 10^-5 M incubated for 48 hrs by sulforhodamine B assay; settings: MDA-MB-435, 48 h, read-out: GI
SN12C = assay: Growth inhibition of human SN12C cells at 10^-5 M incubated for 48 hrs by sulforhodamine B assay; settings: read-out: GI
SNB-19 = assay: Growth inhibition of human SNB19 cells at 10^-5 M incubated for 48 hrs by sulforhodamine B assay; settings: SNB-19, 48 h, read-out: GI
A549 = assay: Growth inhibition of human A549/ATCC cells at 10^-5 M incubated for 48 hrs by sulforhodamine B assay; settings: A549, 48 h, read-out: GI
Malme-3M = assay: Growth inhibition of human MALME-3M cells at 10^-5 M incubated for 48 hrs by sulforhodamine B assay; settings: read-out: GI
NCI/ADR-RES = assay: Growth inhibition of human NCI/ADR-RES cells at 10^-5 M incubated for 48 hrs by sulforhodamine B assay; settings: read-out: GI
LOX IMVI = assay: Growth inhibition of human LOXIMVI cells at 10^-5 M incubated for 48 hrs by sulforhodamine B assay; settings: read-out: GI
NCI-H23 = assay: Growth inhibition of human NCI-H23 cells at 10^-5 M incubated for 48 hrs by sulforhodamine B assay; settings: NCI-H23, 48 h, read-out: GI
TK-10 = assay: Growth inhibition of human TK10 cells at 10^-5 M incubated for 48 hrs by sulforhodamine B assay; settings: TK-10, 48 h, read-out: GI
COLO 205 = assay: Growth inhibition of human COLO205 cells at 10^-5 M incubated for 48 hrs by sulforhodamine B assay; settings: COLO 205, 48 h, read-out: GI
ACHN = assay: Growth inhibition of human ACHN cells at 10^-5 M incubated for 48 hrs by sulforhodamine B assay; settings: read-out: GI
SNB-75 = assay: Growth inhibition of human SNB75 cells at 10^-5 M incubated for 48 hrs by sulforhodamine B assay; settings: SNB-75, 48 h, read-out: GI
A498 = assay: Growth inhibition of human A498 cells at 10^-5 M incubated for 48 hrs by sulforhodamine B assay; settings: A498, 48 h, read-out: GI
OVCAR-8 = assay: Growth inhibition of human OVCAR8 cells at 10^-5 M incubated for 48 hrs by sulforhodamine B assay; settings: OVCAR-8, 48 h, read-out: GI
NCI-H460 = assay: Growth inhibition of human NCI-H460 cells at 10^-5 M incubated for 48 hrs by sulforhodamine B assay; settings: NCI-H460, 48 h, read-out: GI
EKVX = assay: Growth inhibition of human EKVX cells at 10^-5 M incubated for 48 hrs by sulforhodamine B assay; settings: read-out: GI
HCT-15 = assay: Growth inhibition of human HCT15 cells at 10^-5 M incubated for 48 hrs by sulforhodamine B assay; settings: HCT-15, 48 h, read-out: GI
NCI-H322M = assay: Growth inhibition of human NCI-H322M cells at 10^-5 M incubated for 48 hrs by sulforhodamine B assay; settings: read-out: GI
M14 = assay: Growth inhibition of human M14 cells at 10^-5 M incubated for 48 hrs by sulforhodamine B assay; settings: M14, 48 h, read-out: GI
KM12 = assay: Growth inhibition of human KM12 cells at 10^-5 M incubated for 48 hrs by sulforhodamine B assay; settings: KM12, 48 h, read-out: GI
SF-268 = assay: Growth inhibition of human SF268 cells at 10^-5 M incubated for 48 hrs by sulforhodamine B assay; settings: SF-268, 48 h, read-out: GI
SK-OV-3 = assay: Growth inhibition of human SKOV3 cells at 10^-5 M incubated for 48 hrs by sulforhodamine B assay; settings: SK-OV-3, 48 h, read-out: GI
IGROV-1 = assay: Growth inhibition of human IGROV1 cells at 10^-5 M incubated for 48 hrs by sulforhodamine B assay; settings: IGROV-1, 48 h, read-out: GI
U-251 = assay: Growth inhibition of human U251 cells at 10^-5 M incubated for 48 hrs by sulforhodamine B assay; settings: U-251, 48 h, read-out: GI
Hs-578T = assay: Growth inhibition of human Hs 578T cells at 10^-5 M incubated for 48 hrs by sulforhodamine B assay; settings: read-out: GI
OVCAR-4 = assay: Growth inhibition of human OVCAR4 cells at 10^-5 M incubated for 48 hrs by sulforhodamine B assay; settings: OVCAR-4, 48 h, read-out: GI

SMILES	inhibition of growth at 10 µM (SK-MEL-5) [%]	inhibition of growth at 10 µM (SF-295) [%]	inhibition of growth at 10 µM (OVCAR-3) [%]	inhibition of growth at 10 µM (NCI-H522) [%]	inhibition of growth at 10 µM (HOP-92) [%]	inhibition of growth at 10 µM (PC-3) [%]	inhibition of growth at 10 µM (SK-MEL-2) [%]	inhibition of growth at 10 µM (K562) [%]	inhibition of growth at 10 µM (T47D) [%]	inhibition of growth at 10 µM (SF-539) [%]	inhibition of growth at 10 µM (HCT-116) [%]	inhibition of growth at 10 µM (SW-620) [%]	inhibition of growth at 10 µM (CCRF-CEM) [%]	inhibition of growth at 10 µM (MDA-MB-435) [%]	inhibition of growth at 10 µM (SN12C) [%]	inhibition of growth at 10 µM (SNB-19) [%]	inhibition of growth at 10 µM (A549) [%]	inhibition of growth at 10 µM (Malme-3M) [%]	inhibition of growth at 10 µM (NCI/ADR-RES) [%]	inhibition of growth at 10 µM (LOX IMVI) [%]	further results
S=C1Nc2c(sc3ccc(Cl)cc23)C(c2cccc(Br)c2)N1 (stereo unspecified)	3.95	1	-0.26	12	-3.61	6.34	-6.36	1.5	24.5	1	10.9	-1.6	-16.1	-2.42	2.82	2.38	-7.88	-1	-3.15	-0.61	inhibition of growth at 10 µM (NCI-H23): 12.2%; inhibition of growth at 10 µM (TK-10): -18.3%; inhibition of growth at 10 µM (COLO 205): -2.63%; inhibition of growth at 10 µM (ACHN): 4.77%; inhibition of growth at 10 µM (SNB-75): 18.5%; inhibition of growth at 10 µM (A498): 31.7%; inhibition of growth at 10 µM (OVCAR-8): 3.39%; inhibition of growth at 10 µM (NCI-H460): 7.39%; inhibition of growth at 10 µM (EKVX): 12.4%; inhibition of growth at 10 µM (HCT-15): 0.95%; inhibition of growth at 10 µM (NCI-H322M): 5.66%; inhibition of growth at 10 µM (M14): 6.42%; inhibition of growth at 10 µM (KM12): -2.38%; inhibition of growth at 10 µM (SF-268): 1.41%; inhibition of growth at 10 µM (SK-OV-3): 10.4%; inhibition of growth at 10 µM (IGROV-1): 22.6%; inhibition of growth at 10 µM (U-251): -7.09%; inhibition of growth at 10 µM (Hs-578T): 4.32%; inhibition of growth at 10 µM (OVCAR-4): 8.7%
Cc1cc(C)n(C2=Nc3c(sc4ccc(Cl)cc34)C(c3cccc([N+](=O)[O-])c3)N2)n1 (stereo unspecified)	4.68	2.13	-2.22	10.8	-4.25	18.6	-5.1	4.14	13.2	-0.76	5.98	-3.97	-7.22	-3.52	5.84	3.18	3.8	-2.21	-2.52	0.51	inhibition of growth at 10 µM (NCI-H23): 23%; inhibition of growth at 10 µM (TK-10): -12.7%; inhibition of growth at 10 µM (COLO 205): -5.86%; inhibition of growth at 10 µM (ACHN): 11.2%; inhibition of growth at 10 µM (SNB-75): 7.66%; inhibition of growth at 10 µM (A498): 1.15%; inhibition of growth at 10 µM (OVCAR-8): 0.5%; inhibition of growth at 10 µM (NCI-H460): 7.9%; inhibition of growth at 10 µM (EKVX): 24.2%; inhibition of growth at 10 µM (HCT-15): -0.63%; inhibition of growth at 10 µM (NCI-H322M): 0.71%; inhibition of growth at 10 µM (M14): -4.17%; inhibition of growth at 10 µM (KM12): 2.61%; inhibition of growth at 10 µM (SF-268): 1.15%; inhibition of growth at 10 µM (SK-OV-3): 11.4%; inhibition of growth at 10 µM (IGROV-1): 20.6%; inhibition of growth at 10 µM (U-251): -3.95%; inhibition of growth at 10 µM (Hs-578T): 0.17%; inhibition of growth at 10 µM (OVCAR-4): -2.96%
O=[N+]([O-])c1cccc(C2c3sc4ccc(Cl)cc4c3N=C3NN=C(c4cccc(F)c4)N32)c1 (stereo unspecified)	4.01	2.31	-1.54	7.14	-18	7.25	-11.2	6.99	18.1	4.75	2.49	-3.74	-19.6	-11.2	3.42	-0.64	2.2	-3.66	-2.63	0.5	inhibition of growth at 10 µM (NCI-H23): 10.1%; inhibition of growth at 10 µM (TK-10): -12.9%; inhibition of growth at 10 µM (COLO 205): -6.34%; inhibition of growth at 10 µM (ACHN): 11.4%; inhibition of growth at 10 µM (SNB-75): 6.3%; inhibition of growth at 10 µM (A498): 0.64%; inhibition of growth at 10 µM (OVCAR-8): -1.43%; inhibition of growth at 10 µM (NCI-H460): 13.4%; inhibition of growth at 10 µM (EKVX): 14.8%; inhibition of growth at 10 µM (HCT-15): 0.97%; inhibition of growth at 10 µM (NCI-H322M): 2.83%; inhibition of growth at 10 µM (M14): -2.52%; inhibition of growth at 10 µM (KM12): 2.47%; inhibition of growth at 10 µM (SF-268): 2.25%; inhibition of growth at 10 µM (SK-OV-3): 6.58%; inhibition of growth at 10 µM (IGROV-1): 21.3%; inhibition of growth at 10 µM (U-251): -1.33%; inhibition of growth at 10 µM (Hs-578T): 1.64%; inhibition of growth at 10 µM (OVCAR-4): 0.57%
O=[N+]([O-])c1cccc(C2c3sc4ccc(Cl)cc4c3N=C3NN=CN32)c1 (stereo unspecified)	5.85	-3.63	-0.5	1.55	-7.25	-9.08	-3.53	-4.99	-3.72	6.94	3.22	5.16	-13.4	-17.5	-37.5	1.87	-0.61	-2.71	6.44	6.72	inhibition of growth at 10 µM (NCI-H23): 17.7%; inhibition of growth at 10 µM (TK-10): 39%; inhibition of growth at 10 µM (COLO 205): -6.88%; inhibition of growth at 10 µM (ACHN): 22%; inhibition of growth at 10 µM (SNB-75): -4.8%; inhibition of growth at 10 µM (A498): 22.4%; inhibition of growth at 10 µM (OVCAR-8): 1.42%; inhibition of growth at 10 µM (NCI-H460): 2.77%; inhibition of growth at 10 µM (EKVX): 15%; inhibition of growth at 10 µM (HCT-15): -1.1%; inhibition of growth at 10 µM (NCI-H322M): 5.8%; inhibition of growth at 10 µM (M14): -2.02%; inhibition of growth at 10 µM (KM12): 3.7%; inhibition of growth at 10 µM (SF-268): 4.21%; inhibition of growth at 10 µM (SK-OV-3): -4.54%; inhibition of growth at 10 µM (IGROV-1): -11.9%; inhibition of growth at 10 µM (U-251): -0.13%; inhibition of growth at 10 µM (Hs-578T): -18.1%; inhibition of growth at 10 µM (OVCAR-4): 0.93%
